Laboratory results: patent US12582654B2, “Cyano-substituted pyridine and cyano-substituted pyrimidine compound and preparation method therefor and application thereof” (BEIJING SCITECH-MQ PHARMACEUTICALS LIMITED, priority 2019, dated 2026)

Assays:
FGFR4 kinase = FGFR4 kinase (Homo sapiens, UniProt P22455); test: Inhibition of FGFR4 kinase activity (ULight-labeled JAK-1 peptide, EU665/EU615 reading); assay type: biochemical; details: FGFR4 kinase 3.85 nM, ATP 100 μM, enzymatic reaction 2 hours
Experimental: (§1) Assay of activity of small molecule compounds on inhibiting FGFR4 kinase and FGFR4 V550L mutant kinase. The assay method was as follows:
(§2) 1) Dilution of Compounds:
(§3) In a 96-well plate a, the compounds were serially diluted 3-fold with DMSO to form 11 concentrations, and the 12th concentration was pure DMSO (as a positive control); In a new 96-well plate b, the above solutions were diluted 25-fold with ultrapure water (DMSO concentration was 4%).
(§4) 2) Transferring Compounds to a 384-Well Plate:
(§5) The above solutions of compounds diluted with ultrapure water in the 96-well plate b were pipetted into corresponding wells of a 384-well plate.
(§6) 3) Adding 4× kinase solution: 2.5 μl of the above 4× kinase solutions were pipetted with a multi-channel pipette into corresponding reaction wells of the 384-well plate, and the mixture was mixed well and pre-reacted at room temperature for 5 minutes.
(§7) 4) Adding 2× substrate/ATP mixture: 5 μl of the above 2× substrate/ATP mixtures were pipetted with a multi-channel pipette into corresponding reaction wells of the 384-well plate.
(§8) 5) Negative control: negative control wells were set up in the 384-well plate by adding 2.5 μl of 4× substrate, 2.5 μl of 4× enzyme solution, 2.5 μl of 1× kinase Assay Buffer and 2.5 μl of ultrapure water containing 4% DMSO to each well.
(§9) 6) Centrifuging, mixing well, and reacting at room temperature in the dark for 2 hours.
(§10) 7) Terminating the Enzymatic Reaction:
(§11) 5 μl of the above 4× stop solutions were pipetted into corresponding wells of the 384-well plate, and the mixture was centrifuged, mixed well, and then reacted at room temperature for 5 minutes.
(§12) 8) Development of the Reaction:
(§13) 5 μl of the above 4× detection solutions were pipetted into corresponding wells of the 384-well plate, and the mixture was centrifuged, mixed well, and then reacted at room temperature for 1 hour.
(§14) 9) The 384-well plate was placed into a plate reader, and the signal was detected using the appropriate program.
(§15) 10) Analysis of IC50: Reading of well=10000*EU665 value/EU615 value Inhibition rate=(reading of positive control well−reading of assay well)/(reading of positive control well−reading of negative control well)*100%
(§16) The corresponding IC50 can be calculated by inputting the drug concentrations and corresponding inhibition rates into GraphPad Prism 5 and processing.
Assay Conditions for Screening FGFR4 Kinase Activity Inhibitory Molecule:
The final concentration of FGFR4 kinase in the reaction system was 3.85 nM, the final concentration of ATP was 100 μM, the final concentration of substrate ULight™-labeled JAK-1 (Tyr1023) Peptide was 100 nM, and the time for enzymatic reaction was 2 hours.
The highest final concentration of the compound in the reaction system was 2.5 μM. After serial 3-fold dilution, there were 11 concentrations in total, and the lowest final concentration was 0.042 nM. The final concentration of DMSO was 1%.

[1] = biological target: T1, Ba/F3 ETV6-FGFR4-V550L cells (Homo sapiens, UniProt P22455, V550L, cells depend on it); test: Inhibition of cell proliferation (CCK-8), Ba/F3 ETV6-FGFR4-V550L cells; assay type: cell-based; details: 72 hours of incubation, read-out: Ba/F3 ETV6-FGFR4-V550L IC50
T1 construct: fused on or other part: N-terminal part of ETV6 (TEL), the oligomerising partner of the fusion; already named as the first entry; P41212 (Transcription factor ETV6)
T1 sequence (P22455 whole entry V550L, the tested form may be a part): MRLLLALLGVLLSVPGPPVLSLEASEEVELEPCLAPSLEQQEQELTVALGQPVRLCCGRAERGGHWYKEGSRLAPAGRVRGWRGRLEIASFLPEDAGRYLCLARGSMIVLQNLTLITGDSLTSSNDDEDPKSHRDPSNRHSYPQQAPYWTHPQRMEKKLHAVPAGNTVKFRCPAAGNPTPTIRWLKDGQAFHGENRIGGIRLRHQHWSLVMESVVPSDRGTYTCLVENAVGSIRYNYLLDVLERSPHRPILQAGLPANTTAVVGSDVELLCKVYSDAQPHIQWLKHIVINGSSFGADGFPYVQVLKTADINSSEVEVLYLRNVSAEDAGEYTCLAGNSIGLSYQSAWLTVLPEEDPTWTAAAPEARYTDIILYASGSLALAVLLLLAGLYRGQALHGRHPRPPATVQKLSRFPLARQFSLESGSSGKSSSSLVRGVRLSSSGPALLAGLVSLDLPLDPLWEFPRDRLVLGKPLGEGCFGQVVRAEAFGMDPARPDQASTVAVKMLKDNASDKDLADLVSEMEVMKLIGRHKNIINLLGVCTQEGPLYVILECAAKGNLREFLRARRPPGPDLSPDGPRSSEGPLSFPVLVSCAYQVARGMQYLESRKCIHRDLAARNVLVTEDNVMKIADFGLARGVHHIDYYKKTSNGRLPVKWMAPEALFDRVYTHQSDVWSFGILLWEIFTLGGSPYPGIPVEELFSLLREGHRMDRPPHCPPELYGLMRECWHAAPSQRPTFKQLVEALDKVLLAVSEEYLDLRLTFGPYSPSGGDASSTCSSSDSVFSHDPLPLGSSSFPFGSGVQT
Experimental: (§17) Compounds were assayed for inhibiting cell proliferation, and the specific method was as follows: • 1. Cells were cultured to a logarithmic growth phase, pipetted evenly, transferred to a 15 mL centrifuge tube, and centrifuged at 1000 rpm at room temperature for 4 minutes; • 2. The supernatant was discarded; 5 mL of complete medium was added and pipetted evenly; 10 μL of cell suspension was weighed, mixed well with 10 μL of 0.4% trypan blue, and counted under a cell counter; the proportion of living cells was ensured to be above 90%; • 3. The cell suspension was seeded into a 96-well plate (80 μL of cell suspension per well) according to the conditions shown in Table 5; in the outer 36 wells of the 96-well plate, no cells were added but only sterile water was added; only the inner 60 wells were used for cell assay and control; • 4. 5× compound dilution: the compounds were serially diluted 4-fold to give a total of 9 concentrations; 80-fold overall dilution was completed with complete medium, the resulting concentration was 5 times the final drug concentration, and DMSO concentration was 1.25%; • 5. 20 μL of the corresponding compounds with different concentrations were added to each well of assay wells of the 96-well plate; 20 μL of complete medium was added to positive and negative control wells and shaken well; and the final concentration of DMSO in each well was 0.25%; • 6. After 72 hours of incubation, 10 μL of CCK-8 reagent was added to each well and further incubated at 37° C. for 1-2 hours; and the OD value was read at 450 nm; 7. Cell survival rate (%)=[(As−Ab)/(Ac−Ab)]*100% • As: Assay well (medium containing cells, CCK-8, compound) • Ac: Control well (medium containing cells, CCK-8) • Ab: Blank well (medium without cell and compound, CCK-8) • 8. The values were imported into Graphpad Prism 5 software for IC50 calculation.

FGFR4 V550L kinase = FGFR4 V550L kinase (Homo sapiens, UniProt P22455, V550L); test: Inhibition of FGFR4 V550L mutant kinase activity (ULight-labeled PolyGT, EU665/EU615 reading); assay type: biochemical; details: FGFR4 V550L kinase 1 nM, ATP 10 μM, enzymatic reaction 2 hours
Chain of FGFR4 V550L kinase (P22455 22-802 V550L): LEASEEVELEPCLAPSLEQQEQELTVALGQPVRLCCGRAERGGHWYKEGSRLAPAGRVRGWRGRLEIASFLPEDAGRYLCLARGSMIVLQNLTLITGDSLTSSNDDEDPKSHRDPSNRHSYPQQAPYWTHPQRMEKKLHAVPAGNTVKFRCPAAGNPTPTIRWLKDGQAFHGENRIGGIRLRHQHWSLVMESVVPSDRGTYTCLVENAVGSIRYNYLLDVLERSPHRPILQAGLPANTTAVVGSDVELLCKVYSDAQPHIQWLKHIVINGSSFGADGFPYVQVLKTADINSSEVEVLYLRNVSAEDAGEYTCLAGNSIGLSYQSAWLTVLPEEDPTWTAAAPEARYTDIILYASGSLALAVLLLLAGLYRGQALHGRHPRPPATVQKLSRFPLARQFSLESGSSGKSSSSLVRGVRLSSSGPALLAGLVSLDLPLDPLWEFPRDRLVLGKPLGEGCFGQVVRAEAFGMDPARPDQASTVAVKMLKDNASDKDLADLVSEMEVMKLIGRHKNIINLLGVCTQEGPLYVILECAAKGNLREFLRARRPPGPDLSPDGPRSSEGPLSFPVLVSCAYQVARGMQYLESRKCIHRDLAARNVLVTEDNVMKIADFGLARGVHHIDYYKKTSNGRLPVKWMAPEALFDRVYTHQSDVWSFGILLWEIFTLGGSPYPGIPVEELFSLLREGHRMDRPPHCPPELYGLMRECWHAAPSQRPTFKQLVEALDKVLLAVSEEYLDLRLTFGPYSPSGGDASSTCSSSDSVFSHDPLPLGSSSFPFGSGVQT
Experimental: as §1, §2, §3, §4, §5, §6, §7, §8, §9, §10, §11, §12, §13, §14, §15, §16
Assay Conditions for Screening FGFR4 V550L Kinase Activity Inhibitory Molecule:
The final concentration of FGFR4 V550L kinase in the reaction system was 1 nM, the final concentration of ATP was 10 μM, the final concentration of substrate ULight™-labeled PolyGT was 100 nM, and the time for enzymatic reaction was 2 hours.
The highest final concentration of the compound in the reaction system was 2.5 μM. After seral 3-fold dilution, there were 11 concentrations in total, and the lowest final concentration was 0.042 nM. The final concentration of DMSO was 1%.

Ba/F3 ETV6-FGFR4 cells = biological target: T2, Ba/F3 ETV6-FGFR4 cells (Homo sapiens, UniProt P22455); test: Inhibition of cell proliferation (CCK-8), Ba/F3 ETV6-FGFR4 cells; assay type: cell-based; details: 72 hours of incubation, read-out: Ba/F3 ETV6-FGFR4 IC50
T2 construct: fused on or other part: N-terminal part of ETV6 (TEL), the oligomerising partner that makes the FGFR4 kinase constitutively active; P41212 (Transcription factor ETV6)
T2 sequence (P22455 whole entry, change not shown, the tested form may be a part): as the sequence (P22455 whole entry V550L, the tested form may be a part) above, with L550V counted along it
Experimental: as §17

Chain of FGFR4 kinase (P22455 22-802): as the sequence (P22455 22-802 V550L) above, with L529V counted along it

## C=CC(=O)Nc1cc(N2CCC(N3CCN(C)CC3)CC2)c(C)cc1Nc1ncc(C#N)c(Nc2ccccc2OC(C)C)n1 [Example 13, N-(2-((5-cyano-4-((2-isopropoxyphenyl)amino)pyrimidin-2-yl)amino)-4-methyl-5-(4-(4-methylpiperazin-1-yl)piperidin-1-yl)phenyl) acrylamide]
FGFR4 kinase
  IC50: 10 to 50 nM
[1]
  GI50: 10 to 50 nM
FGFR4 V550L kinase
  IC50: 10 to 50 nM
Ba/F3 ETV6-FGFR4 cells
  GI50: ≤ 10 nM

## C=CC(=O)Nc1cc(N2CCN(C)CC2)c(F)cc1Nc1ncc(C#N)c(Nc2ccccc2OC(C)C)n1 [Example 14, N-(2-((5-cyano-4-((2-isopropoxyphenyl)amino)pyrimidin-2-yl)amino)-4-fluoro-5-(4-methylpiperazin-1-yl)phenyl) acrylamide]
FGFR4 kinase
  IC50: 50 to 100 nM
[1]
  GI50: ≤ 10 nM
FGFR4 V550L kinase
  IC50: 10 to 50 nM
Ba/F3 ETV6-FGFR4 cells
  GI50: ≤ 10 nM

## C=CC(=O)Nc1cc(N2CCN(CC)CC2)c(F)cc1Nc1ncc(C#N)c(Nc2ccccc2OC(C)C)n1 [Example 15, N-(2-((5-cyano-4-((2-isopropoxyphenyl)amino)pyrimidin-2-yl)amino)-5-(4-ethylpiperazin-1-yl)-4-fluorophenyl) acrylamide]
FGFR4 kinase
  IC50: 50 to 100 nM
[1]
  GI50: ≤ 10 nM
FGFR4 V550L kinase
  IC50: 10 to 50 nM
Ba/F3 ETV6-FGFR4 cells
  GI50: ≤ 10 nM

## C=CC(=O)Nc1cc(N2CCC(N(C)C)CC2)c(F)cc1Nc1ncc(C#N)c(Nc2ccccc2OC(C)C)n1 [Example 16, N-(2-((5-cyano-4-((2-isopropoxyphenyl)amino)pyrimidin-2-yl)amino)-5-(4-(dimethylamino)piperidin-1-yl)-4-fluorophenyl) acrylamide]
FGFR4 kinase
  IC50: 10 to 50 nM
[1]
  GI50: ≤ 10 nM
FGFR4 V550L kinase
  IC50: ≤ 10 nM
Ba/F3 ETV6-FGFR4 cells
  GI50: ≤ 10 nM

## C=CC(=O)Nc1cc(N2CCC(N3CCCC3)CC2)c(F)cc1Nc1ncc(C#N)c(Nc2ccccc2OC(C)C)n1 [Example 17, N-(2-((5-cyano-4-((2-isopropoxyphenyl)amino)pyrimidin-2-yl)amino)-4-fluoro-5-(4-(pyrrolidin-1-yl)piperidin-1-yl)phenyl) acrylamide]
FGFR4 kinase
  IC50: 10 to 50 nM
[1]
  GI50: ≤ 10 nM
FGFR4 V550L kinase
  IC50: 10 to 50 nM
Ba/F3 ETV6-FGFR4 cells
  GI50: ≤ 10 nM

## C=CC(=O)Nc1cc(N2CCC(N3CCCCC3)CC2)c(F)cc1Nc1ncc(C#N)c(Nc2ccccc2OC(C)C)n1 [Example 18, N-(5-([1,4‘- bipiperidin]-1′-yl)-2-((5-cyano-4-((2-isopropoxyphenyl)amino)pyrimidin-2-yl)amino)-4-fluorophenyl) acrylamide]
FGFR4 kinase
  IC50: 10 to 50 nM
[1]
  GI50: ≤ 10 nM
FGFR4 V550L kinase
  IC50: 10 to 50 nM
Ba/F3 ETV6-FGFR4 cells
  GI50: ≤ 10 nM

## C=CC(=O)Nc1cc(N2CCC(N3CCOCC3)CC2)c(F)cc1Nc1ncc(C#N)c(Nc2ccccc2OC(C)C)n1 [Example 19, N-(2-((5-cyano-4-((2-isopropoxyphenyl)amino)pyrimidin-2-yl)amino)-4-fluoro-5-(4-morpholinopiperidin-1-yl)phenyl) acrylamide]
FGFR4 kinase
  IC50: 100 to 1000 nM
[1]
  GI50: ≤ 10 nM
FGFR4 V550L kinase
  IC50: 10 to 50 nM
Ba/F3 ETV6-FGFR4 cells
  GI50: ≤ 10 nM

## C=CC(=O)Nc1cc(N2CCC(N3CCN(C)CC3)CC2)c(F)cc1Nc1ncc(C#N)c(Nc2ccccc2OC(C)C)n1 [Example 20, N-(2-((5-cyano-4-((2-isopropoxyphenyl)amino)pyrimidin-2-yl)amino)-4-fluoro-5-(4-(4-methylpiperazin-1-yl)piperidin-1-yl)phenyl) acrylamide]
FGFR4 kinase
  IC50: 10 to 50 nM
[1]
  GI50: ≤ 10 nM
FGFR4 V550L kinase
  IC50: 10 to 50 nM
Ba/F3 ETV6-FGFR4 cells
  GI50: ≤ 10 nM

## C=CC(=O)Nc1cc(N2CCN(CC)CC2)ccc1Nc1ncc(C#N)c(Nc2c(F)cccc2OC(C)C)n1 [Example 21, N-(2-((5-cyano-4-((2-fluoro-6-isopropoxyphenyl)amino)pyrimidin-2-yl)amino)-5-(4-ethylpiperazin-1-yl)phenyl) acrylamide]
FGFR4 kinase
  IC50: 10 to 50 nM
[1]
  GI50: 10 to 50 nM
FGFR4 V550L kinase
  IC50: 10 to 50 nM
Ba/F3 ETV6-FGFR4 cells
  GI50: ≤ 10 nM

## C=CC(=O)Nc1cc(N2CCN(CC)CC2)ccc1Nc1ncc(C#N)c(Nc2c(C)cccc2OC(C)C)n1 [Example 22, N-(2-((5-cyano-4-((2-isopropoxy-6-methylphenyl)amino)pyrimidin-2-yl)amino)-5-(4-ethylpiperazin-1-yl)phenyl) acrylamide]
FGFR4 kinase
  IC50: 100 to 1000 nM
[1]
  GI50: 100 to 1000 nM
FGFR4 V550L kinase
  IC50: 100 to 1000 nM
Ba/F3 ETV6-FGFR4 cells
  GI50: 100 to 1000 nM

## C=CC(=O)Nc1cc(N2CCN(CC)CC2)ccc1Nc1ncc(C#N)c(Nc2cc(F)ccc2OC(C)C)n1 [Example 23, N-(2-((5-cyano-4-((5-fluoro-2-isopropoxyphenyl)amino)pyrimidin-2-yl)amino)-5-(4-ethylpiperazin-1-yl)phenyl) acrylamide]
FGFR4 kinase
  IC50: 50 to 100 nM
[1]
  GI50: ≤ 10 nM
FGFR4 V550L kinase
  IC50: ≤ 10 nM
Ba/F3 ETV6-FGFR4 cells
  GI50: ≤ 10 nM

## C=CC(=O)Nc1cc(N2CCN(CC)CC2)ccc1Nc1ncc(C#N)c(Nc2cc(C)ccc2OC(C)C)n1 [Example 24, N-(2-((5-cyano-4-((2-isopropoxy-5-methylphenyl)amino)pyrimidin-2-yl)amino)-5-(4-ethylpiperazin-1-yl)phenyl) acrylamide]
FGFR4 kinase
  IC50: 10 to 50 nM
[1]
  GI50: ≤ 10 nM
FGFR4 V550L kinase
  IC50: 10 to 50 nM
Ba/F3 ETV6-FGFR4 cells
  GI50: 10 to 50 nM

## C=CC(=O)Nc1cc(N2CCN(CC)CC2)ccc1Nc1ncc(C#N)c(Nc2cc(C#N)ccc2OC(C)C)n1 [Example 25, N-(2-((5-cyano-4-((5-cyano-2-isopropoxyphenyl)amino)pyrimidin-2-yl)amino)-5-(4-ethylpiperazin-1-yl)phenyl) acrylamide]
FGFR4 kinase
  IC50: 50 to 100 nM
[1]
  GI50: 10 to 50 nM
FGFR4 V550L kinase
  IC50: 10 to 50 nM
Ba/F3 ETV6-FGFR4 cells
  GI50: 10 to 50 nM

## C=CC(=O)Nc1cc(N2CCN(CC)CC2)ccc1Nc1ncc(C#N)c(Nc2cc(C(F)(F)F)ccc2OC(C)C)n1 [Example 26, N-(2-((5-cyano-4-((2-isopropoxy-5-(trifluoromethyl)phenyl)amino)pyrimidin-2-yl)amino)-5-(4-ethylpiperazin-1-yl)phenyl) acrylamide]
FGFR4 kinase
  IC50: 100 to 1000 nM
[1]
  GI50: 100 to 1000 nM
FGFR4 V550L kinase
  IC50: 100 to 1000 nM
Ba/F3 ETV6-FGFR4 cells
  GI50: 100 to 1000 nM

## C=CC(=O)Nc1cc(N2CCN(CC)CC2)ccc1Nc1ncc(C#N)c(Nc2ccc(F)cc2OC(C)C)n1 [Example 27, N-(2-((5-cyano-4-((4-fluoro-2-isopropoxyphenyl)amino)pyrimidin-2-yl)amino)-5-(4-ethylpiperazin-1-yl)phenyl) acrylamide]
FGFR4 kinase
  IC50: ≤ 10 nM
[1]
  GI50: ≤ 10 nM
FGFR4 V550L kinase
  IC50: ≤ 10 nM
Ba/F3 ETV6-FGFR4 cells
  GI50: ≤ 10 nM
